Experimental data as given in ChEMBL document CHEMBL6096683, “Novel Orthosteric/Allosteric Ligands of Cannabinoid Receptors: An Unexpected Pharmacological Profile” (J Med Chem, 2025).
Calls of active or inactive are those of the source. The calls are words filed in the database; no cut-off is given here.

Tests used:
HepG2 [1] = assay: Anti-steatosis activity against oleate/palmitate-induced human HepG2 cells assessed as reduction of lipid accumulation incubated for 24 hrs; assay type: functional, cell-based; conditions: dose 0.1-25 µM
Cannabinoid receptor 2 [2] = target: T1, Cannabinoid receptor 2 (Homo sapiens, UniProt P34972); assay: Agonist activity at human CB2 receptor expressed in CHO cells assessed as inhibition of forskolin-induced cAMP production at 10 uM incubated for 90 mins by HitHunter assay; assay type: functional, cell-based; conditions: filed as agonist
T1 sequence (P34972 whole entry): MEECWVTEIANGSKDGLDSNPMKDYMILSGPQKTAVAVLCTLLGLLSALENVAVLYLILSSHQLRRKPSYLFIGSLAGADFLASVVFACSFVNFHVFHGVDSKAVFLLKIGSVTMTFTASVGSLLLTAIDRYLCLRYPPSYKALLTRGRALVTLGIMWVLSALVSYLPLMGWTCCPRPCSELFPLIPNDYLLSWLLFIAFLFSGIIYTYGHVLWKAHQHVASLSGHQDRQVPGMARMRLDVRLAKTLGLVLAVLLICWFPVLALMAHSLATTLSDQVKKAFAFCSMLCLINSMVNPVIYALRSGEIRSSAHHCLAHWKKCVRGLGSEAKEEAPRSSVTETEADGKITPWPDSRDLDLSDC

BEND3 [3] = assay: Disruption of monolayer integrity in mouse BEND3 cells assessed as change in TEER modulation at 135 mins; assay type: functional, cell-based
BEND3 [4] = assay: Disruption of monolayer integrity in mouse BEND3 cells assessed as change in TEER modulation at 180 mins; assay type: functional, cell-based
Cannabinoid receptor 2 [5] = target: T1, Cannabinoid receptor 2; assay: Displacement of [3H]CP55940 from human CB2 receptor expressed in CHO cell membrane incubated for 2 hrs; assay type: cell membranes
Cannabinoid receptor 1 [6] = target: T2, Cannabinoid receptor 1 (Homo sapiens, UniProt P21554); assay: Agonist activity at human CB1 receptor expressed in CHO cells assessed as inhibition of forskolin-induced cAMP production incubated for 90 mins in presence of GAT211 ligand by HitHunter assay; assay type: functional, cell-based
T2 sequence (P21554 whole entry): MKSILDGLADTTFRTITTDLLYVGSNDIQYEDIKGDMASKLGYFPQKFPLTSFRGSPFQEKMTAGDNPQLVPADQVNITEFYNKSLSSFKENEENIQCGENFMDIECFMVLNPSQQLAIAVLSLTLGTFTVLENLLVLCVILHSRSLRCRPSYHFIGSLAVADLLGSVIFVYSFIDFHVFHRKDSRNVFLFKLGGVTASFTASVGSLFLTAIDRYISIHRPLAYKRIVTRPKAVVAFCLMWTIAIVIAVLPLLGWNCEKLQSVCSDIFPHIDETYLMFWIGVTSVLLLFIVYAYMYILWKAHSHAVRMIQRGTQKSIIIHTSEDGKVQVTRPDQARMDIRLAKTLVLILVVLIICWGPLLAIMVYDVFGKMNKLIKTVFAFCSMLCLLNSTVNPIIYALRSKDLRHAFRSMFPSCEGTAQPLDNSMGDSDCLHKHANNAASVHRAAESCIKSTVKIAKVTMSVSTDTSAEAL

BEND3 [7] = assay: Disruption of monolayer integrity in mouse BEND3 cells assessed as change in TEER modulation after 3 hrs; assay type: functional, cell-based
Cannabinoid receptor 1 [8] = target: T2, Cannabinoid receptor 1; assay: Agonist activity at human CB1 receptor expressed in CHO cells assessed as inhibition of forskolin-induced cAMP production incubated for 90 mins in presence of FM6b ligand by HitHunter assay; assay type: functional, cell-based
Cannabinoid receptor 1 [9] = target: T2, Cannabinoid receptor 1; assay: Agonist activity at human CB1 receptor expressed in CHO cells assessed as inhibition of forskolin-induced cAMP production at 1 nM incubated for 90 mins in presence of CP55940 ligand by HitHunter assay relative to control; assay type: functional, cell-based; conditions: filed as agonist
HepG2 [10] = assay: Induction of lipid accumulation in human HepG2 cells at 0.1 to 25 uM incubated for 24 hrs by Oil Red O staining based analysis; assay type: functional, cell-based; conditions: dose 0.1-25 µM
Cannabinoid receptor 1 [11] = target: T2, Cannabinoid receptor 1; assay: Agonist activity at human CB1 receptor expressed in CHO cells assessed as inhibition of forskolin-induced cAMP production at 100 nM incubated for 90 mins in presence of FM6b ligand by HitHunter assay relative to control; assay type: functional, cell-based; conditions: filed as agonist
Cannabinoid receptor 1 [12] = target: T2, Cannabinoid receptor 1; assay: Displacement of [3H]CP55940 from human CB1 receptor expressed in CHO cell membrane incubated for 2 hrs; assay type: cell membranes
HepG2 [13] = assay: Cytotoxicity against human HepG2 cells at 0.1 to 100 uM incubated for 24 hrs by MTT assay; assay type: functional, cell-based; conditions: dose 0.1-100 µM
[14] = Cytotoxicity against mouse BEND3 cells assessed as cell viability at 30 uM incubated for 24 hrs by WST-1 assay; assay type: functional; conditions: read-out: Activity
HepG2 [15] = assay: Induction of lipid accumulation in human HepG2 cells assessed as increase in lipolysis at 0.1 to 25 uM incubated for 24 hrs by Oil Red O staining based analysis; assay type: functional, cell-based; conditions: dose 0.1-25 µM
Cannabinoid receptor 1 [16] = target: T2, Cannabinoid receptor 1; assay: Displacement of [3H]CP55940 from human CB1 receptor expressed in CHO cell membrane at 0.001 to 10 uM incubated for 2 hrs relative to control; assay type: cell membranes; conditions: dose 0.001-10 µM
Cannabinoid receptor 1 [17] = target: T2, Cannabinoid receptor 1; assay: Agonist activity at human CB1 receptor expressed in CHO cells assessed as inhibition of forskolin-induced cAMP production at 100 nM incubated for 90 mins in presence of GAT211 ligand by HitHunter assay relative to control; assay type: functional, cell-based
Cannabinoid receptor 2 [18] = target: T1, Cannabinoid receptor 2; assay: Displacement of [3H]CP55940 from human CB2 receptor expressed in CHO cell membrane at 0.001 to 10 uM incubated for 2 hrs relative to control; assay type: cell membranes; conditions: dose 0.001-10 µM
Cannabinoid receptor 1 [19] = target: T2, Cannabinoid receptor 1; assay: Agonist activity at human CB1 receptor expressed in CHO cells assessed as inhibition of forskolin-induced cAMP production incubated for 90 mins in presence of CP55940 ligand by HitHunter assay; assay type: functional, cell-based
HepG2 [20] = assay: Anti-steatosis activity against oleate/palmitate-induced human HepG2 cells assessed as induction of lipolysis at 0.1 to 25 uM incubated for 24 hrs; assay type: functional, cell-based; conditions: dose 0.1-25 µM
Cannabinoid receptor 1 [21] = target: T2, Cannabinoid receptor 1; assay: Agonist activity at human CB1 receptor expressed in CHO cells assessed as inhibition of forskolin-induced cAMP production at 100 nM incubated for 90 mins in presence of CP55940 ligand by HitHunter assay relative to control; assay type: functional, cell-based
Cannabinoid receptor 2 [22] = target: T1, Cannabinoid receptor 2; assay: Agonist activity at human CB2 receptor expressed in CHO cells assessed as inhibition of forskolin-induced cAMP production incubated for 90 mins in presence of CP55940 ligand by HitHunter assay; assay type: functional, cell-based
Cannabinoid receptor 2 [23] = target: T1, Cannabinoid receptor 2; assay: Agonist activity at human CB2 receptor expressed in CHO cells assessed as inhibition of forskolin-induced cAMP production at 100 nM incubated for 90 mins in presence of CP55940 ligand by HitHunter assay relative to control; assay type: functional, cell-based; conditions: filed as agonist
Cannabinoid receptor 2 [24] = target: T1, Cannabinoid receptor 2; assay: Agonist activity at human CB2 receptor expressed in CHO cells assessed as inhibition of forskolin-induced cAMP production at 100 nM incubated for 90 mins in presence of FM6b ligand by HitHunter assay relative to control; assay type: functional, cell-based; conditions: filed as agonist
Cannabinoid receptor 2 [25] = target: T1, Cannabinoid receptor 2; assay: Agonist activity at human CB2 receptor expressed in CHO cells assessed as inhibition of forskolin-induced cAMP production incubated for 90 mins in presence of FM6b ligand by HitHunter assay; assay type: functional, cell-based
Cannabinoid receptor 2 [26] = target: T1, Cannabinoid receptor 2; assay: Displacement of [3H]CP55940 from human CB2 receptor expressed in CHO cells upto 1 uM; assay type: cell-based
Cannabinoid receptor 2 [27] = target: T1, Cannabinoid receptor 2; assay: Positive allosteric modulation at human CB2 receptor expressed in CHO cells assessed as inhibition of forskolin-induced cAMP production incubated for 90 mins in presence of CP55940 ligand by HitHunter assay relative to control; assay type: functional, cell-based; conditions: filed as positive allosteric modulator
Cannabinoid receptor 2 [28] = target: T1, Cannabinoid receptor 2; assay: Positive allosteric modulation at human CB2 receptor expressed in CHO cells assessed as inhibition of forskolin-induced cAMP production incubated for 90 mins in presence of CP55940 ligand by HitHunter assay; assay type: functional, cell-based
Cannabinoid receptor 2 [29] = target: T1, Cannabinoid receptor 2; assay: Agonist activity at human CB2 receptor expressed in CHO cells assessed as inhibition of forskolin-induced cAMP production at 0.001 to 10 uM incubated for 90 mins by HitHunter assay; assay type: functional, cell-based; conditions: dose 0.001-10 µM
Cannabinoid receptor 1 [30] = target: T2, Cannabinoid receptor 1; assay: Positive allosteric modulation at human CB1 receptor expressed in CHO cells assessed as inhibition of forskolin-induced cAMP production incubated for 90 mins in presence of FM6b by HitHunter assay relative to control; assay type: functional, cell-based; conditions: filed as positive allosteric modulator
Cannabinoid receptor 2 [31] = target: T1, Cannabinoid receptor 2; assay: Positive allosteric modulation at human CB2 receptor expressed in CHO cells assessed as inhibition of forskolin-induced cAMP production incubated for 90 mins in presence of FM6b by HitHunter assay; assay type: functional, cell-based
Cannabinoid receptor 2 [32] = target: T1, Cannabinoid receptor 2; assay: Displacement of [3H]CP55940 from human CB2 receptor expressed in CHO cells at 10 uM; assay type: cell-based; conditions: filed as positive allosteric modulator
HepG2 [33] = assay: Anti-steatosis activity against oleate/palmitate-induced human HepG2 cells assessed as induction of lipolysis at 25 uM incubated for 24 hrs; assay type: functional, cell-based
Cannabinoid receptor 1 [34] = target: T2, Cannabinoid receptor 1; assay: Displacement of [3H]CP55940 from human CB1 receptor expressed in CHO cells at 0.001 to 10 uM; assay type: cell-based; conditions: filed as positive allosteric modulator, dose 0.001-10 µM
Cannabinoid receptor 1 [35] = target: T2, Cannabinoid receptor 1; assay: Positive allosteric modulation at human CB1 receptor expressed in CHO cells assessed as inhibition of forskolin-induced cAMP production incubated for 90 mins by HitHunter assay; assay type: functional, cell-based; conditions: filed as positive allosteric modulator
Cannabinoid receptor 2 [36] = target: T1, Cannabinoid receptor 2; assay: Positive allosteric modulation at human CB2 receptor expressed in CHO cells assessed as inhibition of forskolin-induced cAMP production incubated for 90 mins in presence of FM6b by HitHunter assay relative to control; assay type: functional, cell-based; conditions: filed as positive allosteric modulator

| Structure (SMILES) | Activity (Cannabinoid receptor 2 [2]) | IC50 (Cannabinoid receptor 2 [5]; read-out: pIC50 (converted)) | EC50 (Cannabinoid receptor 1 [6]) | EC50 (Cannabinoid receptor 1 [8]) | Emax (Cannabinoid receptor 1 [11]) | IC50 (Cannabinoid receptor 1 [12]) | Activity (HepG2 [15]) | Emax (Cannabinoid receptor 1 [16]) | Emax (Cannabinoid receptor 1 [17]) | Emax (Cannabinoid receptor 2 [18]; filed as agonist) | EC50 (Cannabinoid receptor 1 [19]) | Emax (Cannabinoid receptor 1 [21]; filed as agonist) | Emax (Cannabinoid receptor 1 [16]; filed as agonist) | also measured |
| --- | --- | --- | --- | --- | --- | --- | --- | --- | --- | --- | --- | --- | --- | --- |
| Cc1c(Br)cc(C(=O)NC2CCCCCC2)c(=O)n1CCCCCn1cc(CCCCC(=O)NCC(c2ccccc2)c2c(-c3ccccc3)[nH]c3ccccc23)nn1 (stereo not given) | Active | 1000 nM | 126 nM | 6.31 nM | 83% | 126 nM | Active | 31% | 35% | 201% | 1580 nM | – | – | Activity (HepG2 [1]): Dose-dependent-effect; Activity (BEND3 [3]): Active; Activity (BEND3 [4]): Active; Activity (BEND3 [7]): Active; Emax (Cannabinoid receptor 1 [9]): 98%; Activity (HepG2 [10]): Active; Activity (HepG2 [13]): Active; viability at 30 µM [14]: > 75%; Activity (HepG2 [20]): Active |
| Cc1c(Br)cc(C(=O)NC2CCCCCC2)c(=O)n1CCCCCn1cc(CCCC(=O)NCC(c2ccccc2)c2c(-c3ccccc3)[nH]c3ccccc23)nn1 (stereo not given) | Active | > 10000 nM | 5.01 nM | 1580 nM | 130% | 15.8 nM | – | 0.12% | 24% | 44% | 251 nM | 122% | – | – |
| Cc1c(Br)cc(C(=O)NC2CCCCCC2)c(=O)n1CCCn1cc(CCC(=O)NCC(c2ccccc2)c2c(-c3ccccc3)[nH]c3ccccc23)nn1 (stereo not given) | Active | – | 2 nM | 2510 nM | 150% | 31.6 nM | – | – | 26% | 130% | 7.94 nM | 61% | 329% | IC50 (Cannabinoid receptor 2 [5]; read-out: IC50): 6.3 nM; EC50 (Cannabinoid receptor 2 [22]): 10 nM; Emax (Cannabinoid receptor 2 [23]): 123%; Emax (Cannabinoid receptor 2 [24]): 77%; EC50 (Cannabinoid receptor 2 [25]): 316 nM |
| O=[N+]([O-])CC(c1ccccc1)c1c(-c2ccccc2)[nH]c2ccccc12 (stereo not given) | – | > 10000 nM | – | – | – | – | inactive | – | – | – | – | – | – | Activity (Cannabinoid receptor 2 [26]): inactive; Emax (Cannabinoid receptor 2 [27]): 105%; EC50 (Cannabinoid receptor 2 [28]): 0.06 nM; Activity (Cannabinoid receptor 2 [29]): No effect; Emax (Cannabinoid receptor 1 [30]): 85%; Emax (Cannabinoid receptor 1 [16]; filed as positive allosteric modulator): 140%; EC50 (Cannabinoid receptor 2 [31]): 170 nM; Activity (Cannabinoid receptor 2 [32]): Active; Activity (HepG2 [33]): inactive; Emax (Cannabinoid receptor 2 [18]): 29%; Activity (Cannabinoid receptor 1 [34]): Active; Activity (Cannabinoid receptor 1 [35]): Active; Emax (Cannabinoid receptor 2 [36]): 98% |
| Cc1c(Br)cc(C(=O)NC2CCCCCC2)c(=O)n1CCCn1cc(CCCCC(=O)NCC(c2ccccc2)c2c(-c3ccccc3)[nH]c3ccccc23)nn1 (stereo not given) | Active | – | – | 63.1 nM | 67% | 0.631 nM | – | – | 3.32% | 97% | 25.1 nM | – | 60% | Emax (Cannabinoid receptor 1 [21]): 31% |
